Assay results as given in patent US20240383893A1, “Hydroxamic Acid Compound Having ENPP1 Inhibitory Activity and Use Thereof” (Haihe Biopharma Co., Ltd., priority 2021, published 2024).

target: T1, ENPP1 (hENPP1-ECD-His) (Homo sapiens (Human), UniProt P22413); assay: biochemical; conditions: not given
T1 sequence (P22413 98-925): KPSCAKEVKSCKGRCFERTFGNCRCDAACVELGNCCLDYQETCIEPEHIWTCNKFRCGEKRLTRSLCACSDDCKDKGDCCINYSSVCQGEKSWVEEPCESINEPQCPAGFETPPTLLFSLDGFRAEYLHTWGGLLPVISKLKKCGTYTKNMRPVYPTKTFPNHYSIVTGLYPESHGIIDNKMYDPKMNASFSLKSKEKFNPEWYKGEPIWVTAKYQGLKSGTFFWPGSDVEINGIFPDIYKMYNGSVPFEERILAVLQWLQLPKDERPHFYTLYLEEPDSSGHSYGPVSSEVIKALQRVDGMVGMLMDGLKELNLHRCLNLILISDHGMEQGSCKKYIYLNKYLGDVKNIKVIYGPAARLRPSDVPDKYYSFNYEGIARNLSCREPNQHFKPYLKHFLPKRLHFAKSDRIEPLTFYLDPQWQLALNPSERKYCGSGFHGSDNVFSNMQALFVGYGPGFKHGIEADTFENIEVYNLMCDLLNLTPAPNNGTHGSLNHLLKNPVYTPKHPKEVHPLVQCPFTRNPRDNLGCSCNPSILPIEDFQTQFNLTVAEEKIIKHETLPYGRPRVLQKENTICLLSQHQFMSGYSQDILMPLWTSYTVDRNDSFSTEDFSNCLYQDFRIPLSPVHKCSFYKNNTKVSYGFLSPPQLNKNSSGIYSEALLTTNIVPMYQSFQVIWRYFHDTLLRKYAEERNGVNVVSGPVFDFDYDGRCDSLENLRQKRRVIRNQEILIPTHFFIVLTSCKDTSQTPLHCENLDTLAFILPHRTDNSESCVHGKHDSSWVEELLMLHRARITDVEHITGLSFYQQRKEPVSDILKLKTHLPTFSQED

Row | IC50 [nM] | SMILES
1 | 6.8 | COc1cc2nccc(Nc3cnn(C4(C(=O)NO)CCOCC4)c3)c2cn1 [Compound 183]
2 | 389 | CNc1ccc2c(Oc3ccc(C(C)(C)C(=O)NO)cc3)ccnc2c1 [Compound 102]

The next lines start with the molecule.

Row | SMILES | IC50 [nM]
3 | CC(C)C(C(=O)NO)c1ccc(Nc2ncnc3c2cnn3C)cc1 (centres unmarked) [Compound 199] | 317
4 | COc1ccc2c(Oc3cnn(C(C)(C)C(=O)NO)c3)ccnc2n1 [Compound 155] | 28
5 | COc1ccc2c(Oc3ccc(C(F)C(=O)NO)cc3)ccnc2n1 (centres unmarked) [Compound 43] | 5.3
6 | CCOC(C(=O)NO)c1ccc(Oc2ccnc3nc(OC)ccc23)cc1 (centres unmarked) [Compound 86] | 3.7

target: T1, ENPP1 (hENPP1-ECD-His); assay: not given; conditions: not given

Row | IC50 [nM] | SMILES
7 | 89 | COc1cc2nccc(Nc3ccc(CC(=O)NO)cc3)c2cc1OC [Example A-1, reference compound]
8 | 1.7 | COc1ccc2c(Nc3ccc(C(C)C(=O)NO)c(F)c3)ccnc2n1 (centres unmarked) [Compound 61]
9 | 3.4 | COc1ccc2c(Nc3ccc(C4(C(=O)NO)CCOCC4)cc3)ccnc2c1 [Compound 164]
10 | 3 | COc1ccc2c(Nc3ccc(C4(C(=O)NO)CCOCC4)c(F)c3)ccnc2n1 [Compound 162]
11 | 2.9 | COc1ccc2c(Oc3ccc(C4(C(=O)NO)CC5CCC(C4)O5)cc3)ccnc2n1 (centres unmarked) [Compound 176]
12 | 1.9 | COc1ccc2c(Oc3ccc(C4(C(=O)NO)CCCOCC4)cc3)ccnc2n1 (centres unmarked) [Compound 175]
13 | 2.5 | COc1ccc2c(Nc3ccc4c(c3)CCC4C(=O)NO)ccnc2n1 (centres unmarked) [Compound 51]
14 | 2.7 | COc1ccc2c(Nc3ccc(CC(=O)NO)cc3)ncnc2c1 [Compound 10]
15 | 1.9 | Cn1ncc2c(Oc3ccc(C4(C(=O)NO)CC4)cc3)ccnc21 [Compound 80]
16 | 63 | COc1ccc2nccc(Oc3ccc(C(C)(C)C(=O)NO)cc3)c2c1 [Compound 99]
17 | 2.9 | CCn1ncc2c(Nc3ccc(C4(C(=O)NO)CCOCC4)cc3)ccnc21 [Compound 163]
18 | 1.7 | COc1ccc2c(Nc3ccc(C(CC(C)C)C(=O)NO)cc3)ccnc2n1 (centres unmarked) [Compound 182]
19 | 1.8 | COc1ccc2c(Nc3ccc(CC(=O)NO)c(Cl)c3)ccnc2n1 [Compound 78]
20 | 2.6 | COc1ccc2c(Oc3c(F)cc(C4(C(=O)NO)CCOCC4)cc3F)ccnc2n1 [Compound 137]
21 | 1.8 | COc1cc2nccc(Nc3ccc(CC(=O)NO)c(F)c3)c2cn1 [Compound 189]
22 | 4.4 | COc1ccc2c(Oc3ccc(C4(C(=O)NO)CCOCC4)cc3F)ccnc2n1 [Compound 136]
23 | 1.4 | COc1ccc2c(Cc3ccc(C4(C(=O)NO)CCCC4)cc3)ccnc2n1 [Compound 141, N-hydroxy-1-(4-((7-methoxy-1,8-naphthylidin-4-yl)methyl)phenyl)cyclopentane-1-formamide]
24 | 2.7 | COc1ccc2c(Nc3ccc(CC(=O)NO)nc3)ccnc2n1 [Compound 44]
25 | 7.1 | COc1ccc2c(Oc3ccc(C4(C(=O)NO)CCOCC4)c(Cl)c3)ccnc2n1 [Compound 135]
26 | 6 | COc1ccc2c(Oc3ccc(C4(C(=O)NO)CCOCC4)cc3Cl)ccnc2n1 [Compound 138]
27 | 343 | Cn1c(=O)ccc2c(Nc3ccc(CC(=O)NO)cc3)ccnc21 [Compound 18, N-hydroxy-2-(4-((8-methyl-7-oxy-7,8-dihydro-1,8-naphthyridin-4-yl)amino)phenyl)acetamide]
28 | 1 | COc1cc2nccc(Nc3ccc(C(CC(C)C)C(=O)NO)cc3)c2cn1 (centres unmarked) [Compound 179]
29 | 7.9 | COc1cc2nccc(Nc3ccc(C(C(=O)NO)C(C)C)cc3)c2cn1 (centres unmarked) [Compound 177]
30 | 1.8 | COc1ccc2c(Cc3ccc(C4(C(=O)NO)CCOCC4)cc3)ccnc2n1 [Compound 171]

Further lines, the molecule ahead of its results:

Row | SMILES | IC50 [nM]
31 | Cn1ncc2c(Nc3ccc(C(C)(C)C(=O)NO)cc3)ncnc21 [Compound 68] | 4.8
32 | COc1ccc2c(Nc3c(F)cc(C(C)C(=O)NO)cc3F)ccnc2n1 (centres unmarked) [Compound 62] | 1.6
33 | COc1cc2nccc(Nc3c(F)cc(C(CC(C)C)C(=O)NO)cc3F)c2cn1 (centres unmarked) [Compound 184] | 2.2
34 | COc1ccc2c(Oc3ccc(CC(=O)NO)cc3)c(C#N)cnc2c1 [Compound 14] | 1.2
35 | COc1ccc2c(Oc3ccc(C(CC(C)C)C(=O)NO)c(F)c3)ccnc2n1 (centres unmarked) [Compound 201] | 11
36 | COc1ccc2c(Nc3cc(F)c(CC(=O)NO)cc3F)ccnc2n1 [Compound 52] | 2.2
37 | CCn1ncc2c(Oc3cccc(C(=O)NO)c3)ccnc21 [Compound 76] | 289
38 | COc1ccc2c(C(C)c3ccc(C(C)(C)C(=O)NO)cc3)ccnc2n1 (centres unmarked) [Compound 113] | 219
39 | COc1cc2nccc(Nc3cc(F)c(C(CC(C)C)C(=O)NO)c(F)c3)c2cn1 (centres unmarked) [Compound 186] | 3.8
40 | Cc1cc(Nc2ncnc3ccccc23)ccc1CC(=O)NO [Compound 24] | 36
41 | COc1ccc2c(Oc3ccc(C4(C(=O)NO)CCN(C)CC4)cc3)ccnc2n1 [Compound 146] | 13
42 | O=C(Cc1ccc(Nc2ncnc3ccccc23)cc1)NO [Compound 16] | 64
43 | COc1ccc2c(Nc3cnn(C(C(=O)NO)C(C)C)c3)ccnc2n1 (centres unmarked) [Compound 167] | 103
44 | CCn1ncc2c(Nc3ccc(CC(=O)NO)cc3)ncnc21 [Compound 33] | 2.4
45 | COc1ccc2c(Oc3ccc(CC(=O)NO)cc3C)ccnc2n1 [Compound 21] | 3.1
46 | COc1cc2ncnc(Nc3ccc(C(C(=O)NO)C(C)C)cc3)c2cn1 (centres unmarked) [Compound 187] | 27
47 | COc1ccc2c(Nc3cc(F)c(CC(=O)NO)c(F)c3)ccnc2n1 [Compound 70] | 1.7
48 | COc1ccc2c(Nc3ccc(CC(=O)NO)c(OC)c3)ccnc2n1 [Compound 79] | 1.9
49 | COc1ccc2c(N[C@H]3CC[C@H](CC(=O)NO)CC3)ccnc2n1 [Compound 89] | 24
50 | COc1ccc2c(Nc3ccc(C(C)(C)C(=O)NO)nc3)ccnc2n1 [Compound 127] | 1.6
51 | COc1ccc2c(Oc3ccc(C(C(=O)NO)C(C)C)c(F)c3)ccnc2n1 (centres unmarked) [Compound 150] | 7.2

Row | SMILES | IC50 [nM]
52 | COc1cccc2c(Oc3ccc(CC(=O)NO)cc3)c(C#N)cnc12 [Compound 5] | 150
53 | COc1ccc2c(Oc3ccc(C(O)C(=O)NO)cc3)ccnc2n1 (centres unmarked) [Compound 38] | 4.4
54 | COc1ccc2c(NC3CCN(C(C)(C)C(=O)NO)CC3)ccnc2n1 [Compound 117] | 2.1
55 | COc1ccc2c(Oc3ccc([C@H](C(=O)NO)C4CCOCC4)c(F)c3)ccnc2n1 [Compound 206] | 12
56 | CCn1ncc2c(Nc3ccc(C(C)C(=O)NO)c(F)c3)ccnc21 (centres unmarked) [Compound 65] | 1.9
57 | COc1ccc2c(Oc3ccc(C(C)C(=O)NO)cc3F)ccnc2n1 (centres unmarked) [Compound 72] | 2.2
58 | COc1ccc2c(Nc3ncc(CC(=O)NO)cn3)ccnc2n1 [Compound 151] | 70
59 | COc1ccc2c(Oc3cccc(CC(=O)NO)c3)ccnc2n1 [Compound 75] | 112
60 | O=C(Cc1ccc(Nc2ncnc3ncccc23)cc1)NO [Compound 39] | 205
61 | COc1ccc2c(Oc3ccc(C(C)(C)C(=O)NO)c(Cl)c3)ccnc2n1 [Compound 103] | 21
62 | COc1cc(Nc2ncnc3c2cnn3C)ccc1C(C)(C)C(=O)NO [Compound 126] | 21
63 | COc1ccc2c(N(C)c3ccc(C(C)(C)C(=O)NO)cc3)ccnc2n1 [Compound 114] | 162
64 | O=C(Cc1ccc(Nc2ncnc3c2cnn3C2CC2)cc1)NO [Compound 34] | 376
65 | Cc1nn(C)c2nccc(Nc3ccc(CC(=O)NO)cc3)c12 [Compound 55] | 4.3
66 | COc1cc2nccc(Oc3ccc(C(C)(C)C(=O)NO)cc3)c2cn1 [Compound 97] | 1.5
67 | COc1ccc2c(Oc3ccc(C4(C(=O)NO)CCN(Cc5ccccc5)CC4)cc3)ccnc2n1 [Compound 173] | 1.6
68 | COc1ccc2c(Oc3ccc4c(c3)CCCC4C(=O)NO)ccnc2n1 (centres unmarked) [Compound 145] | 4.2
69 | COc1cc2nccc(Oc3ccc(CC(=O)NO)cc3)c2cn1 [Compound 19] | 2.9
70 | CCn1nc(C)c2c(Nc3ccc(CC(=O)NO)cc3)ncnc21 [Compound 74] | 7.8
71 | Cn1ncc2c(Nc3ccc(C(C)(C)C(=O)NO)cc3)ccnc21 [Compound 81] | 1.9

tested on: not listed separately; assay: Preliminary pharmacokinetic testing in ICR mice (gavage 5 mg/kg, intravenous 1 mg/kg); format: in vivo; conditions: male, mouse, oral administration (5 mg/kg), plasma
Procedure: 1. 6 healthy ICR mice, male, weighing 30-35 g, were randomly divided into 2 groups with 3 mice in each group. The tested compound was administered by gavage (5 mg/kg) and intravenous injection (1 mg/kg), respectively:
Feeding uniformly 4 hours after administration.

Row | AUC(0-t) [ng·h/mL] | half-life [h] | SMILES
72 | 619 |  | COc1ccc2c(Oc3ccc(CC(=O)NO)cc3)ccnc2n1 [Compound 2, N-hydroxy-2-(4-((7-methoxy-1,8-naphthylidin-4-yl)oxy)phenyl)acetamide]
73 | 161 | 2.44 | Cn1ncc2c(Nc3ccc(C(C)(C)C(=O)NO)cc3)ncnc21 [Compound 68]
74 | 1590 | 3.9 | COc1ccc2c(Oc3ccc(C(C)(C)C(=O)NO)c(F)c3)ccnc2n1 [Compound 110]
75 | 887 | 1.3 | COc1ccc2c(Oc3ccc(C(C)(C)C(=O)NO)cc3)ccnc2n1 [Compound 42]
76 | 463 | 2 | COc1ccc2c(Oc3ccc(C4(C(=O)NO)CCOCC4)cc3)ccnc2n1 [Compound 107]

same assay, conditions: male, mouse, oral administration (5 mg/kg), plasma, read-out: Cmax

Row | Cmax [ng/mL] | SMILES
77 | 244 | Cn1ncc2c(Nc3ccc(C(C)(C)C(=O)NO)cc3)ncnc21 [Compound 68]
78 | 2370 | COc1ccc2c(Oc3ccc(C(C)(C)C(=O)NO)c(F)c3)ccnc2n1 [Compound 110]
79 | 1490 | COc1ccc2c(Oc3ccc(C(C)(C)C(=O)NO)cc3)ccnc2n1 [Compound 42]
80 | 640 | COc1ccc2c(Oc3ccc(C4(C(=O)NO)CCOCC4)cc3)ccnc2n1 [Compound 107]

same assay, conditions: male, mouse, plasma, oral administration (5 mg/kg) vs intravenous (1 mg/kg), read-out: F %

Row | bioavailability [%] | SMILES
81 | 20.2 | Cn1ncc2c(Nc3ccc(C(C)(C)C(=O)NO)cc3)ncnc21 [Compound 68]

same assay, conditions: male, mouse, plasma, po, 5 mg/kg, read-out: oral bioavailability

Row | bioavailability [%] | SMILES
82 | > 20 | COc1ccc2c(Oc3ccc(CC(=O)NO)cc3)ccnc2n1 [Compound 2, N-hydroxy-2-(4-((7-methoxy-1,8-naphthylidin-4-yl)oxy)phenyl)acetamide]
83 | > 20 | COc1ccc2c(Oc3ccc(C(C)(C)C(=O)NO)c(F)c3)ccnc2n1 [Compound 110]

same assay, conditions: oral administration (5 mg/kg), plasma

Row | Cmax [ng/mL] | T1/2 [h] | SMILES
84 | 736 | 3.26 | COc1ccc2c(Oc3ccc(CC(=O)NO)cc3)ccnc2n1 [Compound 2, N-hydroxy-2-(4-((7-methoxy-1,8-naphthylidin-4-yl)oxy)phenyl)acetamide]
